Test results from patent US20220378763A1, “COMPOUND FOR TREATMENT OF ACUTE INFLAMMATION IN THE MYOCARDIUM” (CALPROTECT AB, priority 2019, published 2022).

How the values were obtained:
[1] = system: C57BL/6 mice with sepsis induced by bacterial lipopolysaccharide; assay: LPS-induced sepsis: echocardiography; assay type: in vivo, mouse; settings: 30 mg/kg i.p. at 0 and 6 h after LPS
Procedure: Female C57BL/6NRJ mice, 10 weeks of age, were purchased from Janvier Labs and housed under 12 h:12 h light:dark cycles with access to food and water ad libitum. The mice were randomly assigned to the two treatment groups, n=5 mice per group. Sepsis was induced by intraperitoneal (i.p.) injection of 5 mg/kg bacterial lipopolysaccharide (Sigma-Aldrich) in all animals. Immediately thereafter and 6 h later, the mice received treatment with 30 mg/kg ABR-238901 or an equivalent volume of PBS administered i.p. The mice were monitored daily to ensure their well-being. All mouse studies were approved by the Animal Research Ethics Committee of Lund University.
Transthoracic echocardiography was performed at baseline before induction of sepsis, and at 6 h, 12 h and 24 h using the Vevo 3100 platform (VisualSonics) equipped with a MX550D imaging transducer. Anesthesia was induced with 2% Isoflurane (AbbVie) and maintained with 1.25% Isoflurane throughout imaging. Hair was removed using depilatory cream before the application of pre-warmed ultrasound gel. Parasternal long axis recordings were performed in the plane containing the aortic valves and a maximal apex view. Analysis was carried out using the VevoLab software (Visual Sonics). Briefly, the perimeter and long axis of the left ventricle were traced at the end of diastole and at the end of systole and used to calculate left ventricular end-systolic and end-diastolic volumes. Left ventricular stroke volume was calculated as the difference between the left ventricular end-diastolic and end-systolic volumes. Left ventricular ejection fraction was calculated as percentage stroke volume out of the end-diastolic volume. Cardiac output was calculated by multiplying the stroke volume with the heart rate at the time of the examination.

[2] = system: C57BL/6 mice with MI induced by permanent coronary artery ligation; assay: Quantitative PCR of whole heart tissue 3 days post-MI; assay type: in vivo, mouse
Procedure: Total RNA was isolated from whole heart tissue using the TRI Reagent™ Solution (Invitrogen) according to the manufacturer's instructions. cDNA was generated from 2 μg of total RNA per sample using the High Capacity RNA to cDNA™ Kit (Applied Biosystems™). Quantitative real-time TaqMan PCR was performed using the following TaqMan primers (Applied Biosystems): Il-1b (Mm00434228_m1), Arg-1 (Mm00475988_m1), Ym-1 (Mm00657889_mH), Cc/5 (Mm01302427_m1), Tnf-α (Mm00443258_m1), Il-12 (Mm01288989_m1), IFN-γ (Mm01168134_m1), Il-10 (Mm00439614_m1), TGF-β (Mm01178820_m1), Il-4 (Mm00445259_m1) and housekeeping gene Hypoxantine-guanine phosphoribosyltransferase (HPRT) (Mm01324427_m1). Quantitative PCR was run on a ViiA7 Real-Time PCR System (Applied Biosystems) and data were quantified with the 2^−ΔCt method.
In order to assess the effects of the treatment on the post-MI cardiac environment, we performed qPCR analysis of mRNA encoding for proteins involved in myocardial inflammation and repair. The analysis was done in whole heart tissue collected at 3 days post-MI from mice receiving ABR-238901 or PBS (n=5 mice per group). […] The expression of IL-1β, TNFα, IL-10 and TGFβ was not affected at this stage (FIG. 3C, D, H). […] As neutrophils are the main producers of S100A8/A9, this effect is in line with the blunted local and systemic neutrophil response to MI observed in ABR-238901-treated mice (FIG. 2A, H).

[3] = target: T1, S100A9 binding to TLR4/MD2 (Homo sapiens, UniProt P06702); assay: Surface plasmon resonance (Biacore 3000): inhibition of S100A9 binding to immobilized TLR4; settings: 50 nM recombinant human S100A9 over immobilized TLR4; response at late dissociation phase
T1 sequence (P06702 1-114): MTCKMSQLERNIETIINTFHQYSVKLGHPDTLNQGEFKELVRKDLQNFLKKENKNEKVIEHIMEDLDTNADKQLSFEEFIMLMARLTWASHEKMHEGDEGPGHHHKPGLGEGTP
From the text: (a) The molecular structure of ABR-238901. (b-c) Surface plasmon resonance measurement of S100A9 binding to immobilized RAGE (b) and TLR4 (c) in the presence of increasing ABR-238901 concentrations. The magnitude of the response for each ABR-238901 concentration (BABR-238901), measured at the late dissociation phase (t 350s), was expressed as percentage of the response in the absence of competitor (BO), and plotted against the concentration of ABR-238901.
Inhibition of S100A9 binding to RAGE and TLR4/MD2 by ABR-238901 was tested by surface plasmon resonance in a Biacore 3000 system (GE Healthcare, Uppsala, Sweden). Briefly, 50 nM of recombinant human S100A9 was injected over immobilized RAGE and TLR4 (2 min at 30 μL/min) in the presence of increasing concentrations of ABR-238901, ranging from 0.0488 to 100 μM. The magnitude of the responses measured at the late dissociation phase (t 350 s) in the presence of ABR-238901 (BABR-238901) were expressed as percentage of response in the absence of competitor (Bo), and plotted against the concentration of ABR-238901 (FIG. 7b-c). The curves were fit to a sigmoidal dose-response model with variable slope in Prism GraphPad for calculation of IC50.

[4] = system: Nur77 response elements NBRE and NurRE in RAW264.7 macrophages; assay: Nur77 activity luciferase reporter assay in RAW264.7 macrophages stimulated with S100A9; assay type: cell-based, mouse; settings: S100A9 20 μg/mL, ABR-238901 100 μM, 16 hours
Procedure: Low-passage RAW264.7 mouse macrophages (ATCC #TIB-71) were seeded at 125.000 cells/mL in DMEM medium containing 2 mM L-glutamine (Gibco), 10% Fetal Calf Serum (Gibco), and 1% penicillin/streptomycin (Invitrogen). The next day, cells were transfected with pXP1-NurRE-fluc or pGL2-4xNBRE-fluc firefly luciferase Nur77 reporter constructs using Lipofectamine LTX with PLUS reagent (Invitrogen) according to manufacturer's instructions. pRluc-N3, which constitutively expresses Renilla luciferase from the CMV promoter, was co-transfected as an internal control to verify transfection efficiency. Extracellular S100A9 (20 μg/mL) was incubated in the presence of 10 μM ZnCl2 (Sigma) for 15 minutes with or without 100 μM of ABR-238901, and added to the cells 4 hours after transfection. After 16 hours of stimulation, the cells were washed and firefly and Renilla luciferase activities were determined using the Dual-Luciferase Reporter Assay System and a GloMax luminescent plate reader (both Promega).

COc1ncc(S(=O)(=O)Nc2cncc(Cl)c2O)cc1Br [ABR-238901, 5-bromo-N-(5-chloro-4-hydroxypyridin-3-yl)-6-methoxypyridine-3-sulfonamide]
Left ventricular ejection fraction (LVEF) ([1]; 12 h): 44.7% | Cardiac output ([1]; 24 h): 9.17 mL/min | Left ventricular ejection fraction (LVEF) ([1]; 24 h): 54.74% | Gene expression of the chemokine CCL5/RANTES in heart [2]: inhibited | IL-1β expression in heart [2]: not affected | IL-10 expression in heart [2]: not affected | TGFβ expression in heart [2]: not affected | TNFα expression in heart [2]: not affected | Arg-1 mRNA expression in heart ([2]; vs MI controls): enhanced | IFN-γ mRNA expression in heart ([2]; vs MI controls): inhibited | IL-4 mRNA expression in heart ([2]; vs MI controls): enhanced | IL-12 mRNA expression in heart ([2]; vs MI controls): inhibited | Ym-1 mRNA expression in heart ([2]; vs MI controls): enhanced | IC50 [3]: 2100 nM | S100A9-induced increase of Nur77 activity (NBRE and NurRE luciferase reporters) [4]: inhibited
